Test results: publication PMC11597817, “Modulation of Multispecific Transporters by Uncaria tomentosa Extract and Its Major Phytoconstituents” (Pharmaceutics, 2024)
Like-named read-outs stand apart in the source and are kept apart here.

Tests used:
[1] = test system: pregnane X receptor (PXR); conditions: cited from earlier work
OCT1 = biological target: T1, OCT1 (Homo sapiens, UniProt O15245); assay: Uptake inhibition assay, OCT1-overexpressing HEK293 cells; format: cell-based; conditions: oxindole alkaloids, substrate metformin, read-out: IC50 (95% CI of IC50)
T1 construct: expressed in transfected cells; host or cells: HEK293 (lentiviral transduction; cDNA synthesised by GenScript)
T1 sequence (O15245 1-554): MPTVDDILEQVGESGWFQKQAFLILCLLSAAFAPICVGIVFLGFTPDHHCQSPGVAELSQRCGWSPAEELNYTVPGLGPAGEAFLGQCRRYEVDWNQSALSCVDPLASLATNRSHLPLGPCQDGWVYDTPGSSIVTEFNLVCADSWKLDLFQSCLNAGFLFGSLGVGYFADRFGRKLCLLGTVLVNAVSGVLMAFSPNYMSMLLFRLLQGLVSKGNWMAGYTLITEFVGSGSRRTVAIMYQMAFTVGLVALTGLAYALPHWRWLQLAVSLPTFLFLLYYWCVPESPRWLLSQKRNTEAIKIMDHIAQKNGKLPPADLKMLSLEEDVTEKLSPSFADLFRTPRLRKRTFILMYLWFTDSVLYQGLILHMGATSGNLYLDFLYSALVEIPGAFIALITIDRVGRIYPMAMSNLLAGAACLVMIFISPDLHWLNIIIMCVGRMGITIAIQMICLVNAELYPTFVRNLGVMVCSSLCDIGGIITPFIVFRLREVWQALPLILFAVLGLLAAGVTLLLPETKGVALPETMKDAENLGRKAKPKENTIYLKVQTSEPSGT
Source text: The human embryonic kidney 293 (HEK293) cell line was purchased from Invitrogen/ThermoFisher (Waltham, MA, USA). Madin–Darby canine kidney II (MDCKII) wild type cells were obtained from the European Collection of Authenticated Cell Cultures (ECACC catalog no. 00062107). HEK293 cells overexpressing the human uptake OATP1B1 (NCBI Reference Sequence: NM_006446.4), OATP1B3 (NM_019844), OATP2B1 (NM_007256), OATP1A2 (NM_134431), OAT1-3 (BC033682.1; NM_006672.3; BC022387), OCT1-3 (BC126364.1; NM_003058; NM_021977), OCTN1 (NM_003059.3), NTCP (NM_003049.3), MATE1 (NM_018242.3), MATE2K (NM_001099646.2), ENT4 (NM_001040661.1), SGLT2 (AJ133127.1), ASCT1/2 (NM_003038.5; NM_005628.3), LAT1/2 (NM_003486.6; NM_012244.4), and THTR1/2 (NM_006996; NM_025243) and mock and human efflux BCRP (NM_004827.2), BSEP (NM_003742.2), MDR1 (NM_000927.4), and MRP1-5 (NM_004996; NM_000392.4; BC137347.1; NM_005845.4; NM_005688.2) transporters as well as MDCKII overexpressing human ENT1/2 (NM_001078177; NM_001532.2) and URAT1 (BC053348) transporters were created by lentiviral transduction. The cDNA encoding respective transporters were synthetized and cloned by GenScript (Piscataway, NJ, USA). The production of lentivirus supernatants, the transduction of the cells, cloning, functional characterization, and validation were performed by Charles River Laboratories Hungary Kft. (Budapest, Hungary).
Cell cultures were maintained in Dulbecco’s modified Eagle’s medium (DMEM), 4.5 g/L of glucose, supplemented with GlutaMAX^TM, 2.5 v/v % penicillin/streptomycin, and 10% fetal bovine serum (FBS) at 37 °C, 5% CO2, and 90% relative humidity. The medium was replaced two or three times per week; cells were harvested using TrypLE™ Express (ThermoFisher) at 80 to 90% confluence and passaged or seeded. HEK293 cells of passage < 12 (from thawing) and MDCKII cells of passage < 18 were seeded at a density of 1 × 10^5 cells/well onto poly-D-lysine-coated or -non-coated 96-well plates and incubated for 18–22 h prior to inhibition assays.
Plated cells were preincubated with a transport buffer (HBSS) containing 30 or 150 µg/mL of UT extract or 100 µM of isopteropodine, mitraphylline, or uncarine D for 15 min at an appropriate temperature. […] For radiolabeled substrates, accumulation was measured by liquid scintillation counting (MicroBeta Scintillation Counter, PerkinElmer).
The transporter-mediated uptake and ATP-dependent transport were determined by subtracting the activity of the control cell/transporter abundant-membrane in the presence of AMP from the activity of the transporter-overexpressing cell/transporter-abundant membrane in the presence of ATP. The relative transporter-specific accumulation was expressed as the percent of DMSO activity. […] Confidence intervals (CIs) of 95% were also determined. […]

Row | SMILES | PXR activation [1] | IC50 (OCT1; listed as Isopteropodine) | IC50 (OCT1) | IC50 (OCT1; listed as Mitraphylline)
1 | COC(=O)C1=CO[C@@H](C)[C@@H]2CN3CC[C@@]4(C(=O)Nc5ccccc54)[C@@H]3C[C@H]12 [isopteropodine] | PXR activators | 2.81 µM | 2.8 µM | –
2 | COC(=O)C1=CO[C@@H](C)[C@H]2CN3CC[C@]4(C(=O)Nc5ccccc54)[C@@H]3C[C@H]12 [mitraphylline] | PXR activators | – | 7.1 µM | 7.05 µM
